Source: publication PMC11154582, “Modeling the Blood-Brain Barrier Permeability of Potential Heterocyclic Drugs via Biomimetic IAM Chromatography Technique Combined with QSAR Methodology” (Molecules, 2024)

Tests used:
bacteria = test system: bacteria; design: method as in ref [3] (a number printed in a supplementary file, which may have a reference list of its own: not looked up in the article's list); conditions: supplement ref [3]; cited from earlier work
[1] = test system: Staphylococcus aureus ATCC 25923; design: method as in ref [3] (a number printed in a supplementary file, which may have a reference list of its own: not looked up in the article's list); conditions: versus ampicillin; supplement ref [3]; cited from earlier work
[2] = Biomimetic IAM chromatography (log kw, IAM); format: physicochemical; conditions: IAM.PC.DD2 column, buffered acetonitrile, pH 7.4, 25 °C, extrapolated to buffer
Procedure: High performance liquid chromatography (HPLC) measurements were performed on a Shimadzu Vp liquid chromatographic system (Shimadzu, Izabelin, Poland). This instrument was equipped with LC 10AT pump, SPD 10A ultraviolet-visible detector, SCL 10A system controller, CTO-10 AS chromatographic oven, and a Rheodyne injector valve with a 20 μL loop. As the stationary phase Regis IAM.PC.DD2 column, 100 × 4.6 mm i.d., 10 μm (Morton Grove, IL, USA) was applied.
Buffered acetonitrile mixtures were used as effluents. Acetonitrile concentration, expressed as a volume fraction, was varied within a range from 0.2 to 0.5, with a constant step of 0.1. The buffer was prepared from 0.01 mol L^−1 solutions of Na2HPO4 and citric acid, and a pH value of 7.4 was fixed before mixing with an organic modifier. The flow rate was 1.3 mL min^−1. Each compound sample was dissolved in acetonitrile to obtain a concentration of 0.005 mg mL^−1, and each solute peak was detected under ultraviolet light at a wavelength of λmax = 254 nm. Each measurement was performed at a constant temperature (25 °C) at least three times. The dead time values were measured from sodium chloride peaks.
From among 126 heterocyclic compounds evaluated in this work (Table 1), 89 structures have been investigated previously on the IAM column: these are molecules from groups III, IV, V, VI, VII, VIII, IX, XI, XIII, and XV [21, 22, 23]. The remaining ones, i.e., 37 compounds from groups I, II, X, XII and XIV, were tested in this study for the first time using the biomimetic IAM chromatographic technique. To calculate the log kw values (i.e., the logarithms of retention parameter in the buffer as the mobile phase), the retention parameters, logs k (k = (tr − t0)/t0; where tr is the solute retention time, and t0 is a dead time), that were measured for all tested compounds, were used according to Soczewiński-Wachtmeister’s equation (Equation (5)): (5) log k=logtr−t0/t0=log kw−sφ where φ denotes the volume fraction of acetonitrile as organic modifier in the mobile phase, and kw means the retention parameter corresponding to buffer as the mobile phase. The log kw values were evaluated as linear regression coefficients (Table 2).

Cc1ccc(N2CCn3c(COc4ccc(Cl)cc4C)nnc32)cc1 [Compound 9]
antibacterial activity (bacteria): antibacterial
antibacterial activity against Staphylococcus aureus ATCC 25923 [1]: comparable
log kw, IAM [2]: 1.95
